One assay addresses T1, β-catenin (Homo sapiens, UniProt P35222).
T1 sequence (P35222 1-781): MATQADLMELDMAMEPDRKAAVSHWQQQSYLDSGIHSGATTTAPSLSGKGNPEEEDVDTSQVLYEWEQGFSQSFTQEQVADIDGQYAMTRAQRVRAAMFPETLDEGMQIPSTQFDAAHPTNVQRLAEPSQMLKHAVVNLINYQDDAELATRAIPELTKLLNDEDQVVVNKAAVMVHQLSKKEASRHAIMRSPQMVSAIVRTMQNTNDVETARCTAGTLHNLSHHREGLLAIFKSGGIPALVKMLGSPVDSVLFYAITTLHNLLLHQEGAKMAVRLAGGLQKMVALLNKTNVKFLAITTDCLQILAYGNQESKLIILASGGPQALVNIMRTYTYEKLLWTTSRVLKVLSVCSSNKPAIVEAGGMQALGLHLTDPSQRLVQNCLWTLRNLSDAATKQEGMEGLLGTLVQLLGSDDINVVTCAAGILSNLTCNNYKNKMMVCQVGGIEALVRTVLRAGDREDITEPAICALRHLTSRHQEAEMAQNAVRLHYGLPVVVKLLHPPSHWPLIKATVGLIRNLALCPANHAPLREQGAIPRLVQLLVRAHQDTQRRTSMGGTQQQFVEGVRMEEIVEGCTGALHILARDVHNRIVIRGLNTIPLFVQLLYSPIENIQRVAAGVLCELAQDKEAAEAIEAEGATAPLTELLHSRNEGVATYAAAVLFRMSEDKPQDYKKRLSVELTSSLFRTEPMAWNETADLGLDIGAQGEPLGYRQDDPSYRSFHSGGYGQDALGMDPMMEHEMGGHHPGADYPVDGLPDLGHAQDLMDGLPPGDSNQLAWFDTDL
The experiment in a line: KD50 measurement using competitive fluorescence polarization (FP) with labelled TCF4. The format is binding. The following applies: fluorescence polarization, β-catenin; for pKd: read-out: β-Cat FP KD. Summed up: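 Polarization readout (470 nm excitation, 520 nm emission) tracks loss of labelled TCF4 binding to β-catenin as test compound competes. Conditions were 5 nM tracer, 100 nM β-catenin, room temperature, compound serially diluted from 10 nM to 30 uM; run in triplicate experiments.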

The target in assay [1] is Wnt-responsive promoter (TCF/LEF). The experiment in a line: Wnt-dependent luciferase reporter assay. The format is cell-based, murine. How it is done:
The luciferase reporter assay is commonly used as a tool to study gene expression at the transcriptional level. Peptides from libraries described herein were characterized for ability to suppress transcription in cells with luciferase expression controlled by a Wnt-responsive promoter. Peptides were added to cells transfected with luciferase gene downstream of a Wnt-responsive promoter. Cells were stimulated with Wnt3a protein and incubated with peptides from libraries described herein. Luminescence was recorded to determine the peptides with the highest β-catenin-inhibiting activity. EC50 values were calculated based on the inhibition of luminescence and expressed as concentration (uM) in Table 5.
Peptides were assessed for their ability to inhibit Wnt signaling. Murine 3T3 fibroblasts that express luciferase under a Wnt-responsive promoter (TCF/LEF) (Enzo Life Sciences, Farmingdale, NY) were stimulated with Wnt3a in the presence of increasing concentrations of peptide inhibitor (Hit 1: SEQ ID NO:217, Hit 2: SEQ ID NO:224, Hit 3: SEQ ID NO:228, Hit 4: SEQ ID NO:227, Hit 5: SEQ ID NO:220, Hit 6: SEQ ID NO:168. Hit 7: SEQ ID NO:226) or with vehicle control (FIG. 2A).

The record followed here is patent publication US12441768B2, “Compositions and methods for treating endometriosis” (EndoMet Biosciences, Inc., priority 2018, dated 2025).

pEC50, pKd: −log10 of the molar value. Where a SMILES comes first, the peptide text is derived from it. [ ]: non-standard residue; d: D form. The star is where a group is joined. ξ: configuration not given here. NMeW = CN[C@@H](Cc1c[nH]c2ccccc12)C(=O)O; Palmitoyl = CCCCCCCCCCCCCCCC(=O)*; ξαMeV = CC(C)C(C)(N)C(=O)O; ξαMeS = CC(N)(CO)C(=O)O

`CC[C@H](C)[C@H](NC(=O)C(C)(CO)NC(=O)[C@H](CCC(=O)O)NC(=O)[C@H](Cc1c[nH]c2ccccc12)N(C)C(=O)[C@@H](N)Cc1c[nH]c2ccccc12)C(=O)N[C@@H](CC(C)C)C(=O)N[C@@H](CC(=O)O)C(=O)N[C@@H](CCC(=O)O)C(=O)N[C@@H](Cc1c[nH]cn1)C(=O)N[C@H](C(=O)N[C@@H](CCC(N)=O)C(=O)N[C@@H](CCCNC(=N)N)C(=O)N[C@H](C(=O)N[C@@H](Cc1c[nH]c2ccccc12)C(=O)NCC(N)=O)C(C)C)C(C)C` (some centres unmarked) [compound 40] (HELM PEPTIDE1{W.[meW].E.[CC(CO)(N[*:1])C(=O)[*:2]].I.L.D.E.H.V.Q.R.V.W.G.[am]}$$$$V2.0): on β-catenin, the “β-Cat FP Hill slope” value worked out at 0.88 and the pKd is more than 6.40. In assay [1], this compound gave a pEC50 of less than 4.52.

For the compound `CCCCCCCCCCCCCCCC(=O)N[C@@H](Cc1c[nH]c2ccccc12)C(=O)N(C)[C@@H](Cc1c[nH]c2ccccc12)C(=O)N[C@@H](CCC(=O)O)C(=O)NC(C)(CO)C(=O)N[C@H](C(=O)N[C@@H](CC(C)C)C(=O)N[C@@H](CC(=O)O)C(=O)N[C@@H](CCC(=O)O)C(=O)N[C@@H](Cc1c[nH]cn1)C(=O)NC(C)(C(=O)N[C@@H](CCC(N)=O)C(=O)N[C@@H](CCCNC(=N)N)C(=O)N[C@H](C(=O)N[C@@H](Cc1c[nH]c2ccccc12)C(=O)O)C(C)C)C(C)C)[C@@H](C)CC` (some centres unmarked) [compound 397] (Palmitoyl-W[NMeW]E[ξαMeS]ILDEH[ξαMeV]QRVW-OH), the negative logarithm of the Kd (pKd) at β-catenin was less than 4.52. Also, in assay [1], the negative-log EC50 (pEC50) was 4.82 to 5.12.

With `CC[C@H](C)[C@@H]1NC(=O)[C@@H](NC(=O)[C@H](CCC(N)=O)NC(=O)[C@H](C)N(C)C(=O)[C@@H](N)Cc2c[nH]c3ccccc23)CCCCNC(=O)CC[C@@H](C(=O)N[C@@H](Cc2c[nH]cn2)C(=O)N[C@H](C(=O)N[C@@H](CCC(N)=O)C(=O)N[C@@H](CCCNC(=N)N)C(=O)N[C@H](C(=O)N[C@@H](Cc2c[nH]c3ccccc23)C(=O)NCC(N)=O)C(C)C)C(C)C)NC(=O)[C@H](CC(=O)O)NC(=O)[C@H](CC(C)C)NC1=O` [compound 401] (HELM PEPTIDE1{W.[meA].Q.K.I.L.D.E.H.V.Q.R.V.W.G.[am]}$PEPTIDE1,PEPTIDE1,4:R3-8:R3$$$V2.0), at β-catenin, the “β-Cat FP Hill slope” value was 0.7 and the pKd was 6.00 to 6.40. The negative-log EC50 (pEC50) in assay [1] is less than 4.52.

Take `CC[C@H](C)[C@@H]1NC(=O)[C@@H](NC(=O)[C@H](CCC(N)=O)NC(=O)[C@H](C)N(C)C(=O)[C@H](Cc2c[nH]c3ccccc23)NC(C)=O)CCCCNC(=O)CC[C@@H](C(=O)N[C@@H](Cc2c[nH]cn2)C(=O)N[C@H](C(=O)N[C@@H](CCC(N)=O)C(=O)N[C@@H](CCCNC(=N)N)C(=O)N[C@H](C(=O)N[C@@H](Cc2c[nH]c3ccccc23)C(=O)NCC(N)=O)C(C)C)C(C)C)NC(=O)[C@H](CC(=O)O)NC(=O)[C@H](CC(C)C)NC1=O` [compound 402] (HELM PEPTIDE1{[ac].W.[meA].Q.K.I.L.D.E.H.V.Q.R.V.W.G.[am]}$PEPTIDE1,PEPTIDE1,5:R3-9:R3$$$V2.0): at β-catenin, the “β-Cat FP Hill slope” value amounted to 0.7 and the pKd is more than 6.40. This compound gave a pEC50 in assay [1] of less than 4.52.

Turning to `CC[C@H](C)[C@@H]1NC(=O)[C@@H](NC(=O)[C@H](CCC(N)=O)NC(=O)[C@H](C)N(C)C(=O)[C@@H](N)Cc2c[nH]c3ccccc23)CCCCNC(=O)CC[C@@H](C(=O)N[C@@H](Cc2c[nH]cn2)C(=O)N[C@H](C(=O)N[C@@H](CCC(N)=O)C(=O)N[C@@H](CCCNC(=N)N)C(=O)N[C@H](C(=O)N[C@@H](Cc2c[nH]c3ccccc23)C(=O)NCC(N)=O)C(C)C)C2CCCCC2)NC(=O)[C@H](CC(=O)O)NC(=O)[C@H](CC(C)C)NC1=O` [compound 403] (HELM PEPTIDE1{W.[meA].Q.K.I.L.D.E.H.[O=C([C@@H](N[*:1])C1CCCCC1)[*:2]].Q.R.V.W.G.[am]}$PEPTIDE1,PEPTIDE1,4:R3-8:R3$$$V2.0), at β-catenin, the “β-Cat FP Hill slope” value was found to be 0.76 and the negative-log Kd (pKd) is more than 6.40. The compound also gave a pEC50 in assay [1] of less than 4.52.

As to `CC[C@H](C)[C@@H]1NC(=O)[C@@H](NC(=O)[C@H](CCC(N)=O)NC(=O)[C@H](C)N(C)C(=O)[C@H](Cc2c[nH]c3ccccc23)NC(C)=O)CCCCNC(=O)CC[C@@H](C(=O)N[C@@H](Cc2c[nH]cn2)C(=O)N[C@H](C(=O)N[C@@H](CCC(N)=O)C(=O)N[C@@H](CCCNC(=N)N)C(=O)N[C@H](C(=O)N[C@@H](Cc2c[nH]c3ccccc23)C(=O)NCC(N)=O)C(C)C)C2CCCCC2)NC(=O)[C@H](CC(=O)O)NC(=O)[C@H](CC(C)C)NC1=O` [compound 404] (HELM PEPTIDE1{[ac].W.[meA].Q.K.I.L.D.E.H.[O=C([C@@H](N[*:1])C1CCCCC1)[*:2]].Q.R.V.W.G.[am]}$PEPTIDE1,PEPTIDE1,5:R3-9:R3$$$V2.0), on β-catenin, the “β-Cat FP Hill slope” value was 0.79 and the pKd is more than 6.40. Besides, the pEC50 in assay [1] was less than 4.52.

On to `CC[C@H](C)[C@H](NC(=O)[C@H](CO)NC(=O)[C@H](CCC(=O)O)NC(=O)[C@@H]1CCCN1C(=O)[C@H](CC(C)C)NC(=O)[C@H](CCCNC(=N)N)NC(=O)CCN)C(=O)N[C@@H](CC(C)C)C(=O)N[C@@H](CC(=O)O)C(=O)N[C@@H](CCC(=O)O)C(=O)N[C@@H](Cc1c[nH]cn1)C(=O)N[C@H](C(=O)N[C@@H](CCC(N)=O)C(=O)N[C@@H](CCCNC(=N)N)C(=O)N[C@H](C(=O)N[C@@H](Cc1c[nH]c2ccccc12)C(=O)N1CCC[C@H]1C(N)=O)C(C)C)C(C)C` [compound 410] (HELM PEPTIDE1{[bAla].R.L.P.E.S.I.L.D.E.H.V.Q.R.V.W.P.[am]}$$$$V2.0), for which, on β-catenin, the “β-Cat FP Hill slope” value stood at 1.6 and the pKd is 6.00 to 6.40. In assay [1], the pEC50 is less than 4.52.

Regarding `CC[C@H](C)[C@H](NC(=O)[C@@H](NC(=O)[C@H](CCC(N)=O)NC(=O)[C@@H]1CCCN1C(=O)[C@H](CC(=O)O)NC(=O)[C@H](CCC(=O)O)NC(=O)[C@H](CCC(=O)O)NC(=O)CCNC(C)=O)[C@@H](C)O)C(=O)N[C@@H](CC(C)C)C(=O)N[C@@H](CC(=O)O)C(=O)N[C@@H](CC(=O)O)C(=O)N[C@@H](Cc1c[nH]cn1)C(=O)N[C@@H](CC(C)C)C(=O)N[C@@H](CO)C(=O)N[C@@H](CCCNC(=N)N)C(=O)N[C@H](C(=O)N[C@@H](CC(C)C)C(=O)N[C@@H](CCCCN)C(N)=O)C(C)C` [compound 412] (HELM PEPTIDE1{[ac].[bAla].E.E.D.P.Q.T.I.L.D.D.H.L.S.R.V.L.K.[am]}$$$$V2.0), on β-catenin, the “β-Cat FP Hill slope” value turned out to be 0.7 and the pKd is 5.00 to 6.00. The negative logarithm of the EC50 (pEC50) in assay [1] was less than 4.52.

Regarding `CC[C@H](C)[C@H](NC(=O)[C@H](CO)NC(=O)[C@H](CCC(=O)O)NC(=O)[C@@H]1CCCN1C(=O)[C@H](CC(C)C)NC(=O)[C@H](CCCNC(=N)N)NC(=O)CCNC(C)=O)C(=O)N[C@@H](CC(C)C)C(=O)N[C@@H](CC(=O)O)C(=O)N[C@@H](CCC(=O)O)C(=O)N[C@@H](Cc1c[nH]cn1)C(=O)N[C@H](C(=O)N[C@@H](CCC(N)=O)C(=O)N[C@@H](CCCNC(=N)N)C(=O)N[C@H](C(=O)N[C@@H](Cc1c[nH]c2ccccc12)C(=O)N1CCC[C@H]1C(N)=O)C(C)C)C(C)C` [compound 413] (HELM PEPTIDE1{[ac].[bAla].R.L.P.E.S.I.L.D.E.H.V.Q.R.V.W.P.[am]}$$$$V2.0), on β-catenin, the “β-Cat FP Hill slope” value came to 0.7 and the negative-log Kd (pKd) is more than 6.40. The compound further had a negative-log EC50 (pEC50) in assay [1] of less than 4.52.

As for `CC[C@H](C)[C@@H]1NC(=O)[C@@H](NC(=O)[C@H](CCC(N)=O)NC(=O)[C@@H]2CCCN2C(=O)[C@H](Cc2c[nH]c3ccccc23)NC(=O)[C@H](CCCNC(=N)N)NC(C)=O)CCCCNC(=O)CC[C@@H](C(=O)N[C@@H](Cc2c[nH]cn2)C(=O)N[C@H](C(=O)N[C@@H](CCCNC(=N)N)C(=O)N[C@@H](CCCNC(=N)N)C(=O)N[C@H](C(=O)N[C@@H](Cc2c[nH]c3ccccc23)C(=O)N[C@@H](CCCNC(=N)N)C(N)=O)C(C)C)C(C)C)NC(=O)[C@H](CC(=O)O)NC(=O)[C@H](CC(C)C)NC1=O` [compound 428] (HELM PEPTIDE1{[ac].R.W.P.Q.K.I.L.D.E.H.V.R.R.V.W.R.[am]}$PEPTIDE1,PEPTIDE1,6:R3-10:R3$$$V2.0), at β-catenin, the “β-Cat FP Hill slope” value is 0.94 and the negative-log Kd (pKd) was more than 6.40. This compound had a pEC50 in assay [1] of less than 4.52.
